US5166205A, “Derivatives of 1-diphenylmethyl piperazine and their use as antihistamines” (Laboratorios Del Dr. Esteve, S. A., priority 1990, dated 1992)

Assays:
[1] = tested on: death induced by 48/80; test: "In vivo" antihistaminic activity: protection from death induced by compound 48/80 in the rat; conditions: for ED50: ip, 4 h, i.p., rat, 48/80 0.5 mg/kg i.v. after 60 minutes, survival four hours after injection, read-out: ED-50 (dose capable of protecting 50% of the animals from death induced by 48/80)
Experimental: The antihistaminic activity was studied by determining the protection in the face of the mortality used by the product 48/80 in the rat. This test was performed in accordance with the technique described by C. J. E. Niemegeers et cols. (Arch. int. Pharmacodyn., 234, 164-176 (1978). The products according to the present invention are administered intra-peritonially to rats. After 60 minutes the compound 48/80 is administered (0.5 mg/kg, i.v.).
The protective activity is defined as the survival of the rats four hours after the i.v. injection of 48/80.
The activity of the products was studied at several doses in order to determine the dose capable of protecting 50% of the animals (ED-50).
"In vivo" antihistaminic activity Protection from death induced by 48/80

[2] = Sedative action: Irwin Test (passivity, ataxia); conditions: for Atax. (ataxia, alterations of coordination in locomotion), evaluated between 0 and 3 / Pas. (passivity, sedation, prostation), evaluation between 0 and 3 / Effect: toxic: rat, i.p.; for Atax. (ataxia, alterations of coordination in locomotion), evaluated between 0 and 3 / Pas. (passivity, sedation, prostation), evaluation between 0 and 3: 1, 2 and 3 hours after treatment
Experimental: Pas.: Passivity, sedation, prostation. Quantitative evaluation between 0 and 3. They were performed 1, 2 and 3 hours after the treatment.
Atax.: Ataxia, the alterations of coordination in locomotion were evaluated. They were evaluated between 0 and 3. They were performed 1, 2 and 3 hours after the treatment.
Sedative action: 1) Irwin Test

[3] = Sedative effect: potentiation of the sleep time induced by pentobarbital; conditions: for Potentiation of the sleep time induced by pentobarbital (in words): oral, example 5 up to 160 mg/kg, difenhidramine at 20 mg/kg; for Potentiation sleep time: sodium pentobarbital 35 mg/kg s.c. one hour later
Experimental: The study of the potentiation of the sleep time due to the pentobarbital was performed following the method described by L. E. Allen and cols. […] The products studied were administered orally. […] The sleep time was compared with a group of control animals, treated only with sodium pentobarbital.

CN(C)CCOC(c1ccccc1)c1ccccc1 [Difenhidramine, reference compound]
ED50 [1]: 5.4 mg/kg
Atax. (ataxia, alterations of coordination in locomotion), evaluated between 0 and 3 ([2]; 40 mg/kg): 0.9
Pas. (passivity, sedation, prostation), evaluation between 0 and 3 ([2]; 40 mg/kg): 0
Potentiation of the sleep time induced by pentobarbital (in words) [3]: potentiates significantly the sleep time at the dose of 20 mg/kg

Brc1cnn(CCCCN2CCN(C(c3ccccc3)c3ccccc3)CC2)c1 [Example 1, 4-Bromo-1-[4-(4-diphenylmethyl-1-piperazinyl)butyl]pyrazole]
ED50 [1]: 3.2 mg/kg
Atax. (ataxia, alterations of coordination in locomotion), evaluated between 0 and 3 ([2]; 20 mg/kg): 1.2
Pas. (passivity, sedation, prostation), evaluation between 0 and 3 ([2]; 20 mg/kg): 0.8
Atax. (ataxia, alterations of coordination in locomotion), evaluated between 0 and 3 ([2]; 40 mg/kg): 1.4
Pas. (passivity, sedation, prostation), evaluation between 0 and 3 ([2]; 40 mg/kg): 0.8
Effect: toxic ([2]; 80 mg/kg): Toxic

Clc1cnn(CCCCN2CCN(C(c3ccccc3)c3ccccc3)CC2)c1 [Example 2, 4-Chloro-1-[4-(-4-diphenylmethyl-1-piperazinyl)butyl]pyrazole]
ED50 [1]: 3 mg/kg
Atax. (ataxia, alterations of coordination in locomotion), evaluated between 0 and 3 ([2]; 40 mg/kg): 1.5
Pas. (passivity, sedation, prostation), evaluation between 0 and 3 ([2]; 40 mg/kg): 0.2
Effect: toxic ([2]; 80 mg/kg): Tox.
Atax. (ataxia, alterations of coordination in locomotion), evaluated between 0 and 3 ([2]; 80 mg/kg): 0.4
Pas. (passivity, sedation, prostation), evaluation between 0 and 3 ([2]; 80 mg/kg): 0

Brc1cnn(CCCN2CCN(C(c3ccccc3)c3ccccc3)CC2)c1 [Example 3, 4-Bromo-1-[3-(4-diphenylmethyl-1-piperazinyl)propyl]pyrazole]
ED50 [1]: 10 mg/kg
Atax. (ataxia, alterations of coordination in locomotion), evaluated between 0 and 3 ([2]; 80 mg/kg): 0.7
Pas. (passivity, sedation, prostation), evaluation between 0 and 3 ([2]; 80 mg/kg): 0

O=C(O)c1cnn(CCCCN2CCN(C(c3ccccc3)c3ccccc3)CC2)c1 [Example 4, 1-[4-(4-Diphenylmethyl-1-piperazinyl)butyl]-4-carboxy pyrazole]
ED50 [1]: 0.62 mg/kg
Atax. (ataxia, alterations of coordination in locomotion), evaluated between 0 and 3 ([2]; 80 mg/kg): 1
Pas. (passivity, sedation, prostation), evaluation between 0 and 3 ([2]; 80 mg/kg): 0.9
Atax. (ataxia, alterations of coordination in locomotion), evaluated between 0 and 3 ([2]; 160 mg/kg): 1.6
Pas. (passivity, sedation, prostation), evaluation between 0 and 3 ([2]; 160 mg/kg): 1.2

Cc1cnn(CCCCN2CCN(C(c3ccccc3)c3ccccc3)CC2)c1 [Example 5, 1-4-[4-(-Diphenylmethyl-1-piperazinyl)butyl]-4-methyl pyrazole]
antihistaminic activity (in words) ([1]; compared with difenhidramine): one of the most powerful of the products
ED50 [1]: 0.62 mg/kg
sedative action / side effects on the central nervous system (in words) ([2]; in words): less sedative action
Atax. (ataxia, alterations of coordination in locomotion), evaluated between 0 and 3 ([2]; 80 mg/kg): 0.5
Pas. (passivity, sedation, prostation), evaluation between 0 and 3 ([2]; 80 mg/kg): 0.7
Potentiation sleep time ([3]; 40 mg/kg p.o., N.S. (not significant)): 15%
Potentiation sleep time ([3]; 80 mg/kg p.o., N.S. (not significant)): 21%
Potentiation sleep time ([3]; 160 mg/kg p.o., * significant vs control (p < 0.05)): 33%
Potentiation of the sleep time induced by pentobarbital (in words) [3]: does not potentiate the sleep time induced by the pentobarbital except at the dose of 160 mg/kg

c1ccc(C(c2ccccc2)N2CCN(CCCCn3ccnc3)CC2)cc1 [Example 6, 1-[4-(4-Diphenylmethyl-1-piperazinyl)butyl]imidazole]
ED50 [1]: 2.5 mg/kg
Atax. (ataxia, alterations of coordination in locomotion), evaluated between 0 and 3 ([2]; 80 mg/kg): 0.3
Pas. (passivity, sedation, prostation), evaluation between 0 and 3 ([2]; 80 mg/kg): 1.3

c1ccc(C(c2ccccc2)N2CCN(CCCCn3cncn3)CC2)cc1 [Example 7, 1-[4-(4-Diphenylmethyl-1-piperazinyl)butyl]-1,2,4,-triazole]
ED50 [1]: 0.6 mg/kg
Effect: toxic ([2]; 80 mg/kg): Toxic

c1ccc(C(c2ccccc2)N2CCN(CCCCn3cccc3)CC2)cc1 [Example 8, 1-[4-(4-Diphenylmethyl-1-piperazinyl)butyl]pyrrole]
ED50 [1]: 6.7 mg/kg
